In patent US20160325911A1, “ANTIMICROBIAL COMPOSITIONS FOR FOOD PACKAGING CONSISTING OF SALICYLALDEHYDE AND CARVACROL, THYMOL OR THEIR MIXTURE” (INSTITUTO TECNOLÓGICO DEL EMBALAJE, TRANSPORTE Y LOGÍSTICA, priority 2014, published 2016):
Each block holds one compound with its values, some of them ahead of it.

Assays:
Assay type in all cases: cell-based
Conditions in all cases: alone or as component of the blend, 20 h at 36° C. in TSB
[1] = tested on: Escherichia coli (strain ATCC 8739); experiment: Broth dilution MIC and synergy index against Escherichia coli
Procedure: (§1) Solutions containing carvacrol, thymol and salicylaldehyde were assessed for antimicrobial activity against three different reference microorganisms: • Gram negative bacteria—Escherichia coli (strain ATCC 8739) • Gram negative bacteria—Pseudomonas aeruginosa (strain ATCC 27853) • Gram positive bacteria—Staphylococcus aureus (strain ATCC6538)
(§2) The microorganisms were collected from the “Colección Española de Cultivos Tipo” (CECT), University of Valencia. They were collected in the form of a lyophilized inoculum and were refreshed by regular seeding in solid culture media. After the grown, the stock culture was kept under refrigeration. Prior to the analysis, the microorganisms were recultured 3-4 times by diluting colonies in tryptic soy broth (TSB) and incubating overnight at 36° C.
(§3) The day prior to the assay, the colonies are touched with a loop and transferred to tryptic soy broth (TBS) (100 mL). The broth is incubated at 36° C. overnight until the growth reaches a turbidity equal or similar to 10^9 colony-forming units per millilitre (CFU/mL). The culture is adjusted to give a turbidity equivalent to 0.18 absorbance units in order to confirm the inoculum is in the exponential growth phase (around 10^5-10^6 CFU/mL). The measurement is carried out by using a UV-VIS spectrometer, operating at 550 nm and a 1-cm path cell. […]
(§4) The antimicrobial efficacy of Carvacrol, Thymol and Salycylaldehyde and their blends, was determined as Minimum Inhibitory Concentration (MIC). MIC is recorded as the lowest product concentration that inhibits growth. […]
(§5) Where: • CM is the MIC of the substance n when used in a blend, that is, in combination with the rest of antimicrobial compounds analysed. • CS is the MIC of the substance when used alone.
(§6) SI below 1 indicates synergy effect and p-value has been calculated as the probability of obtaining the observed sample results (or a more extreme result) when the null hypothesis is actually true. […]

[2] = tested on: Pseudomonas aeruginosa (strain ATCC 27853); experiment: Broth dilution MIC and synergy index against Pseudomonas aeruginosa
Procedure: as §1, §2, §3, §4, §5, §6

[3] = tested on: Staphylococcus aureus (strain ATCC6538); experiment: Broth dilution MIC and synergy index against Staphylococcus aureus
Procedure: as §1, §2, §3, §4, §5, §6

[4] = amount of salicylaldehyde at the MIC

MIC Escherichia coli, Salicylaldehyde [1, 4]: 4.75 mg
MIC Pseudomonas aeruginosa, Salicylaldehyde [2, 4]: 2.25 mg
MIC Staphylococcus aureus, Salicylaldehyde [3, 4]: 4.75 mg
SMILES: O=Cc1ccccc1O [Salicylaldehyde, salicylaldehyde]

MIC Escherichia coli, Thymol ([1]; amount of thymol at the MIC): 2 mg
MIC Pseudomonas aeruginosa, Thymol ([2]; amount of thymol at the MIC): 4.5 mg
MIC Staphylococcus aureus, Thymol ([3]; amount of thymol at the MIC): 1.1 mg
SMILES: Cc1ccc(C(C)C)c(O)c1 [Thymol, thymol]

SMILES: Cc1ccc(C(C)C)cc1O [Carvacrol, carvacrol]
MIC Escherichia coli, Carvacrol ([1]; amount of carvacrol at the MIC): 3 mg
MIC Pseudomonas aeruginosa, Carvacrol ([2]; amount of carvacrol at the MIC): 7.5 mg
MIC Staphylococcus aureus, Carvacrol ([3]; amount of carvacrol at the MIC): 2.1 mg
